The melting point is the temperature of the solid-liquid transition.

Structures can show the parent of a compound that is named as a salt.

The first data set concerns the target T1, Hormone-sensitive lipase (HSL) (Homo sapiens, UniProt Q05469).
T1 construct: made in house
T1 sequence (Q05469 1-775 isoform Q05469-2): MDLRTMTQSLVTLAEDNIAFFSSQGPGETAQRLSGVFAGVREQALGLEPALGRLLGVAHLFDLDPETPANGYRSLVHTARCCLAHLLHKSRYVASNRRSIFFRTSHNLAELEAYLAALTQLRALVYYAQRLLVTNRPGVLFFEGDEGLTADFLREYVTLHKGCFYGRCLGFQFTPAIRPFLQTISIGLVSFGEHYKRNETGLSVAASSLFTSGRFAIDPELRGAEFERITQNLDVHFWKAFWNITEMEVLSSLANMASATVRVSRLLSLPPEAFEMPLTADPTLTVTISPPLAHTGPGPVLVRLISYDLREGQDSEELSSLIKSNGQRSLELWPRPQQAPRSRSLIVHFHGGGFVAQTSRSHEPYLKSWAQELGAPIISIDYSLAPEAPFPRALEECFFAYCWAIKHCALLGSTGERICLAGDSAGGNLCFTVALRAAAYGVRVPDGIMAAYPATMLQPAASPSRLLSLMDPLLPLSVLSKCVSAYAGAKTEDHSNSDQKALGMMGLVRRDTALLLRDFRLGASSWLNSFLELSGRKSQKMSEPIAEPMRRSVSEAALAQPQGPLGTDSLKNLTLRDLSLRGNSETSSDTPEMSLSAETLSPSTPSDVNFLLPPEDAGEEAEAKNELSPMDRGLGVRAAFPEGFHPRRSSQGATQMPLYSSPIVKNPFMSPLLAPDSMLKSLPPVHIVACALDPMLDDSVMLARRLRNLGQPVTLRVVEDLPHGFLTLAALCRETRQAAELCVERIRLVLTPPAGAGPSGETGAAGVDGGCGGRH
Nature of the data set: 3190.1: percent inhibition of hormone sensitive lipase, fluorochrome-labeled triacylglyceride emulsion. In kind it is biochemical. The note with it: 10 μM sample concentration; preincubated 30 min at 25° C.; 120 min incubation at 37° C.; remaining activity; read-out: 3190.1 HSL_FL % ACTIVITY (% activity relative to non-inhibited sample). The text has this: The Hormone-sensitive lipase was provided by Dr. Cecilia Holm, from Lund University Sweden or produced and purified by Novo Nordisk (NN) using the reagents and protocols used by Dr. Holm. The substrates used are: ^3H-labeled triolein (TO) from Amersham, Buckinghamshire, U.K. cat No. TRA191; 5-20 Ci/mmol dissolved in toluene, triolein (Sigma, Cat. No. T-1740), fluorochrome-labeled triacylglyceride (cis-octadec-9-enoic acid 2-[12-(7-nitrobenzo[1,2,5]oxadiazol-4-ylamino)dodecanoyloxy]-1-cis-octadec-9-enoyloxymethyl-ethyl ester) prepared by Novo Nordisk (NN) by conventional methods, and 1,3-(di[^3H]-stearin), 2-(PEG-Biotin)glycerol prepared in collaboration with Amersham Pharmacia Biotech, UK and described in WO 01/073442. Phosphatidyl choline (PC) and phosphatidyl inositol (PI) are from Sigma (St Luis MO cat. Nos. P-3556 and P-5954 respectively). All other reagents are of commercial grade and obtained from various commercial sources.
3190.1: Assay for determination of percent inhibition of hormone sensitive lipase by compound at 10 μM sample concentration.
A lipid emulsion with fluorochrome-labeled triacylglyceride and phospholipid is used as substrate with a standard concentration of highly purified HSL (12 μg/mL initial concentration corresponding to 600 ng/mL final concentration). BSA is added as product acceptor. The transfer of the fluorochrome from the lipid phase to the water (BSA) phase changes the fluorescent properties of the fluorochrome. The changes can be monitored on a fluorimeter with an excitation wavelength of 450 nm and an emission wavelength of 545 nm.
Compound and HSL (20 μL compound, 10 μL enzyme and 70 μL PED-BSA buffer) is preincubated for 30 min at 25° C. before addition of substrate (100 μL). Amount of formed product is measured after 120 min incubation at 37° C.
Results are given as percent activity relative to a non-inhibited sample (no compound).
On to `O=C(Oc1ccc(Oc2ccc(C(F)(F)F)cn2)cc1)N1CCN(CCCc2cccnc2)CC1` [Example 8, 4-(3-Pyridin-3-yl-propyl)-piperazine-1-carboxylic acid 4-(5-trifluoromethyl-pyridin-2-yloxy)-phenyl ester], for which the activity at 10 µM stood at 1%.
Same read-out and setting: with `O=C(Oc1ccc(Cc2ccc(C(F)(F)F)cc2)cc1)N1CCN(Cc2ccccn2)CC1` [Example 2, 4-Pyridin-2-ylmethyl-piperazine-1-carboxylic acid 4-(4-trifluoromethyl-benzyl)-phenyl ester] the figure was 4%; with `CC1(C)CC(=O)N(c2ccc(OC(=O)N3CCN(Cc4ccccn4)CC3)nc2)C(=O)C1` [Example 4, 4-Pyridin-2-ylmethyl-piperazine-1-carboxylic acid 4,4-dimethyl-2,6-dioxo-3,4,5,6-tetrahydro-2H-[1,3′]bipyridinyl-6′-yl ester], 64%.
For `O=C(Oc1ccc(Oc2ccc(C(F)(F)F)cn2)cc1)N1CCN(CCc2cccnc2)CC1` [Example 9, 4-(2-Pyridin-3-yl-ethyl)-piperazine-1-carboxylic acid 4-(5-trifluoromethyl-pyridin-2-yloxy)-phenyl ester], the activity at 10 µM came out at 2%.
For the molecule `CC1(C)CC(=O)N(CCc2ccc(OC(=O)N3CCN(CCc4ccccn4)CC3)cc2)C(=O)C1` [Example 7, 4-(2-Pyridin-2-yl-ethyl)-piperazine-1-carboxylic acid 4-[2-(4,4-dimethyl-2,6-dioxo-piperidin-1-yl)-ethyl]-phenyl ester], the activity at 10 µM stood at 8%.
Turning to `O=C(Oc1ccc(Cc2ccc(C(F)(F)F)cc2)cc1)N1CCN(CCc2ccccn2)CC1` [Example 1, 4-(2-Pyridin-2-yl-ethyl)-piperazine-1-carboxylic acid 4-(4-trifluoromethyl-benzyl)-phenyl ester], the activity at 10 µM was 6%.

System in a further data set: not given
Experiment: not given
Settings: not given
Take `O=C(Oc1ccc(Oc2ccc(C(F)(F)F)cn2)cc1)N1CCN(CCCc2cccnc2)CC1` (as salt: hydrochloride) [Example 8, 4-(3-Pyridin-3-yl-propyl)-piperazine-1-carboxylic acid 4-(5-trifluoromethyl-pyridin-2-yloxy)-phenyl ester]: the melting point was 203 to 208 °C.
Same read-out and setting: the result for `O=C(Oc1ccc(Oc2ccc(C(F)(F)F)cn2)cc1)N1CCN(CCCc2ccccn2)CC1` reads 204 to 205 °C.

Source of the values: US20060160820A1, “Substituted piperazine carbamates” (Novo Nordisk A/S, priority 2003, published 2006).
